ChEMBL document CHEMBL4732145, “Discovery of a PROTAC targeting ALK with in vivo activity” (Eur J Med Chem, 2021)

Legend:
[1] = system: NCI-H3122; test: Antiproliferative activity against human NCI-H3122 cells assessed as reduction in cell viability measured after 72 hrs by MTT assay; conditions: NCI-H3122, 72 h
[2] = system: NCI-H2228; test: Antiproliferative activity against human NCI-H2228 cells assessed as reduction in cell viability measured after 72 hrs by MTT assay; conditions: NCI-H2228, 72 h
[3] = system: NCI-H1299; test: Antiproliferative activity against human NCI-H1299 cells assessed as reduction in cell viability measured after 72 hrs by MTT assay; conditions: NCI-H1299, 72 h
[4] = system: A549; test: Antiproliferative activity against human A549 cells assessed as reduction in cell viability measured after 72 hrs by MTT assay; conditions: A549, 72 h
[5] = system: HeLa; test: Antiproliferative activity against human HeLa cells assessed as reduction in cell viability measured after 72 hrs by MTT assay
[6] = system: LO2 (Homo sapiens); test: Cytotoxicity against human L02 cells assessed as reduction in cell viability measured after 72 hrs by MTT assay; conditions: l02, 72 h
[7] = system: NCI-H3122; test: Antitumor activity against human NCI-H3122 cells xenografted in BALB/c nude mouse assessed as tumor growth inhibition at 25 mg/kg/day, ig administered for 15 days relative to control; format: functional; conditions: NCI-H3122, po, 360 h, time 15 day, read-out: TGI
[8] = molecular target: von Hippel-Lindau disease tumor suppressor/ALK tyrosine kinase receptor/Nucleophosmin (Homo sapiens) (UniProt Q9UM73+P06748+P40337); test: Protac activity at VHL/NPM-ALK fusion protein in human SU-DHL-1 cells assessed as induction of NPM-ALK fusion protein degradation at 1 uM by Western blot analysis relative to control; format: cell-based
Chain of von Hippel-Lindau disease tumor suppressor/ALK tyrosine kinase receptor/Nucleophosmin (Homo sapiens) (P06748 whole entry partner, the tested form may be a part): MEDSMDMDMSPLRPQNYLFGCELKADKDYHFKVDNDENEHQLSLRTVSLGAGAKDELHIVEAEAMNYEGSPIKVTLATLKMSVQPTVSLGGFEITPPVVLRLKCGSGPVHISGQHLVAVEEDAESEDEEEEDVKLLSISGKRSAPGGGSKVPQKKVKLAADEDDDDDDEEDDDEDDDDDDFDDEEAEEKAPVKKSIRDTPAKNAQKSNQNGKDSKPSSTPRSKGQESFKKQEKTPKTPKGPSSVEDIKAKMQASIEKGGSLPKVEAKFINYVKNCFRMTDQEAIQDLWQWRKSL
Chain of von Hippel-Lindau disease tumor suppressor/ALK tyrosine kinase receptor/Nucleophosmin (Homo sapiens) (P40337 whole entry partner, the tested form may be a part): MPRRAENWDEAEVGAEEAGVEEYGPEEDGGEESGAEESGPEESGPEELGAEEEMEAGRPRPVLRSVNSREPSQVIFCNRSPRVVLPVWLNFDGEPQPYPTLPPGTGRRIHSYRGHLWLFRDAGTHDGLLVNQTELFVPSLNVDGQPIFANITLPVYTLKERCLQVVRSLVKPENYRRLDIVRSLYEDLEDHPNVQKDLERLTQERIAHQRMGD
Chain of von Hippel-Lindau disease tumor suppressor/ALK tyrosine kinase receptor/Nucleophosmin (Homo sapiens) (Q9UM73 19-1620 limits assumed): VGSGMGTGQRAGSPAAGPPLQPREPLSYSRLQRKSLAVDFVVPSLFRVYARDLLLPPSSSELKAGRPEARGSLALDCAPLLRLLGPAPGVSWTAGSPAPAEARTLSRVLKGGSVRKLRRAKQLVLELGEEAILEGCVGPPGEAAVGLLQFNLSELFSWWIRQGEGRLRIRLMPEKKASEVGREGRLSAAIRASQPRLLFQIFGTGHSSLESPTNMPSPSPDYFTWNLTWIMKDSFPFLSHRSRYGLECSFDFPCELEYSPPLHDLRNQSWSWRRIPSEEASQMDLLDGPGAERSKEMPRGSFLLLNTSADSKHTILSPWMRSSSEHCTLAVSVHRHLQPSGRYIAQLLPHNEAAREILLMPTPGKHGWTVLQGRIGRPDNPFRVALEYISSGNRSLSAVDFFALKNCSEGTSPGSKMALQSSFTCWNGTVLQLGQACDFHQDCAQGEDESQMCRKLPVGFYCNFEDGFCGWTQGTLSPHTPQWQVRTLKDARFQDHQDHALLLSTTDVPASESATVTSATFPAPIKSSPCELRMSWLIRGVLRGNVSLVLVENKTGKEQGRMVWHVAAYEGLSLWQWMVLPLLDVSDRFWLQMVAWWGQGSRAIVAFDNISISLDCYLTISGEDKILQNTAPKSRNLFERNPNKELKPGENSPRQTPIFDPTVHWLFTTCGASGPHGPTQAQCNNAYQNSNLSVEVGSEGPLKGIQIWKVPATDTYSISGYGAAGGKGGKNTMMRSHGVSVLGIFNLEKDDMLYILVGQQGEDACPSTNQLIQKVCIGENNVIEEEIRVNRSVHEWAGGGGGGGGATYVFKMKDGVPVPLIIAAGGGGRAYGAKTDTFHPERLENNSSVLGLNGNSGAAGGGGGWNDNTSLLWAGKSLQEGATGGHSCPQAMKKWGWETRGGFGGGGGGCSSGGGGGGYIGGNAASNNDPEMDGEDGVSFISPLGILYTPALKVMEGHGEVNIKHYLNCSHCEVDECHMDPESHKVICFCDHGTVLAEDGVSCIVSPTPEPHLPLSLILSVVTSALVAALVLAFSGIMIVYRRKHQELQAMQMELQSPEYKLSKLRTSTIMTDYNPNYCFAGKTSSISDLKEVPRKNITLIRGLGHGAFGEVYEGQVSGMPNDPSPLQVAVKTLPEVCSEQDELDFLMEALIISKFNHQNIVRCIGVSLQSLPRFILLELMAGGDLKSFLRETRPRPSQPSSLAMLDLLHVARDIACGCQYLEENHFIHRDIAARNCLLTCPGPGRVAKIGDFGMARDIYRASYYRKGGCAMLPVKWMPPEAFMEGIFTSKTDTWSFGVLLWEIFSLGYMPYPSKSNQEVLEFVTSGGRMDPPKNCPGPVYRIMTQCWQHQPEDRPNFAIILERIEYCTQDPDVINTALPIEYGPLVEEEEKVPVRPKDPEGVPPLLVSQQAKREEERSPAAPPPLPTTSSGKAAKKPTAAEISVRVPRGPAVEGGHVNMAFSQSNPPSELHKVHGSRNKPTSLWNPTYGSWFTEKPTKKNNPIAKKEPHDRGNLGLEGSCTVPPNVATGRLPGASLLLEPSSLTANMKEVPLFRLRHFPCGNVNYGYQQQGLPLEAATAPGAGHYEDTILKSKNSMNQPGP

Compound | IC50 [1] [µM] | IC50 [2] [µM] | IC50 [3] [µM] | IC50 [4] [µM] | IC50 [5] [µM] | Activity [6] | inhibition in vivo at 25 mg/kg/day [7] [%] | Activity [8] [%]
Cc1cc(Nc2ncc(Cl)c(Nc3ccccc3S(=O)(=O)C(C)C)n2)c(OC(C)C)cc1C1CCN(CCC(=O)NCCOCCNCCC(=O)Nc2cccc3c2C(=O)N(C2CCC(=O)NC2=O)C3=O)CC1 (centres undefined) | 4.86 | 5.2 | 12.3 | 10.9 | 7.98 | Toxic |  | 
Cc1cc(Nc2ncc(Cl)c(Nc3ccccc3S(=O)(=O)C(C)C)n2)c(OC(C)C)cc1C1CCN(CCC(=O)NCCCCNC(=O)COc2cccc3c2C(=O)N(C2CCC(=O)NC2=O)C3=O)CC1 (centres undefined) | 1.3 | > 20 | 9.33 | > 20 | 6.99 | Toxic |  | 
Cc1cc(Nc2ncc(Cl)c(Nc3ccccc3S(=O)(=O)C(C)C)n2)c(OC(C)C)cc1C1CCN(CCC(=O)NCCCCNCC(=O)Nc2cccc3c2C(=O)N(C2CCC(=O)NC2=O)C3=O)CC1 (centres undefined) | 3.52 | 8.7 | > 20 | 13.4 | 8.15 | Toxic |  | 
Cc1cc(Nc2ncc(Cl)c(Nc3ccccc3S(=O)(=O)C(C)C)n2)c(OC(C)C)cc1C1CCN(CCC(=O)NCCOCCOCCNc2cccc3c2C(=O)N(C2CCC(=O)NC2=O)C3=O)CC1 (centres undefined) | 0.7 | 3.5 | 7.59 | 2.6 | 2.23 | Toxic |  | 
Cc1cc(Nc2ncc(Cl)c(Nc3ccccc3S(=O)(=O)C(C)C)n2)c(OC(C)C)cc1C1CCNCC1 [CERITINIB] |  | 1.3 | 2.92 | 1.32 | 0.94 |  | 49 | 
Cc1cc(Nc2ncc(Cl)c(Nc3ccccc3S(=O)(=O)C(C)C)n2)c(OC(C)C)cc1C1CCN(C(=O)CCCC(=O)N[C@H](C(=O)N2C[C@H](O)C[C@H]2C(=O)NCc2ccc(-c3scnc3C)cc2)C(C)(C)C)CC1 |  |  |  |  |  |  |  | > 90
Cc1cc(Nc2ncc(Cl)c(Nc3ccccc3S(=O)(=O)C(C)C)n2)c(OC(C)C)cc1C1CCN(CCC(=O)NCCCCCCNCC(=O)Nc2cccc3c2C(=O)N(C2CCC(=O)NC2=O)C3=O)CC1 (centres undefined) | 1.1 | 3.1 | > 20 | 5.13 | 4.36 | Toxic |  | 
Cc1cc(Nc2ncc(Cl)c(Nc3ccccc3S(=O)(=O)C(C)C)n2)c(OC(C)C)cc1C1CCN(CCC(=O)NCCOCCOCCNCC(=O)Nc2cccc3c2C(=O)N(C2CCC(=O)NC2=O)C3=O)CC1 (centres undefined) | 2.34 | 4.51 | 10.9 | 5.81 | 5.86 | Toxic |  | 
Cc1cc(Nc2ncc(Cl)c(Nc3ccccc3S(=O)(=O)C(C)C)n2)c(OC(C)C)cc1C1CCN(CCC(=O)NCCOCCNCC(=O)Nc2cccc3c2C(=O)N(C2CCC(=O)NC2=O)C3=O)CC1 (centres undefined) | 1.83 | 5.74 | 7.23 | 6.73 | 5.78 | Toxic |  | 
Cc1cc(Nc2ncc(Cl)c(Nc3ccccc3S(=O)(=O)C(C)C)n2)c(OC(C)C)cc1C1CCN(CCC(=O)NCCCCCCCCNCC(=O)Nc2cccc3c2C(=O)N(C2CCC(=O)NC2=O)C3=O)CC1 (centres undefined) | 2.66 | 15.1 | > 20 | > 20 | 7.67 | Toxic |  | 
